Ends that are not written are not given here. * marks the point of attachment. FITC = O=C1OC2(c3ccc(O)cc3Oc3cc(O)ccc32)c2ccc(NC(=S)*)cc21
Experiments:
[1] = tested on: chick chorioallontoic membrane (CAM); assay type: in vivo; details: 10 nmoles, 48 h
Procedure: The in vivo chick chorioallontoic membrane (CAM) angiogenesis model was used to evaluate the effect of parstatin (1-41) in angiogenesis. On incubation day 9 of fertilized chicken eggs, an O-ring (1 cm^2) was placed on the surface of the CAM and the vehicle or the indicated substances were placed inside this restricted area. After 48 h, CAMs were fixed in saline-buffered formalin, photographed, and analyzed using the Scion Image software (Scion Image Release Beta 4.0.2 software; Scion Corporation, Frederick, Md.). Image analysis was performed on at least 18 eggs for each group. Vessel number and length were evaluated by pixel counting, and the results expressed as mean percentage of control ±SE. Statistical analyses were performed using a Student's t test.

HUVEC cells [2] = experiment: Matrigel capillary tube-like formation; assay type: cell-based, human; details: 5% FBS, 18 h, parstatin (1-41) 0.3 to 10 μM, other peptides 10 μM
Procedure: Primary human umbilical vein endothelial cells (HUVEC cells) were obtained from freshly delivered umbilical cords from caesarean births and were grown in M199 medium with 20% fetal bovine serum (FBS) supplemented with endothelial cell growth supplement and heparin. One of the most specific tests for angiogenesis is the measurement of the ability of endothelial cells to form capillary-like structures (i.e., tube formation). Tube formation is a multi-step process involving cell adhesion, migration and differentiation. Tube formation can be enhanced by use of Matrigel or fibrin clots to coat plastic culture dishes and it is an accepted model of angiogenesis.
Matrigel™ (Becton Dickinson Labware, N.J., USA) is a mixture of basement membrane components extracted from the Englebreth-Holm-Swarm tumor. […] Matrigel™ (250 μl) was added to each well of a 24-well plate and allowed to polymerize. A suspension of 40,000 HUVEC cells in M199 medium containing 5% FBS was added into each well coated with Matrigel™.
Cells were treated with increasing concentrations of human parstatin (1-41), scrambled parstatin, or parstatin (24-41) fragment. After 18 hours of incubation, the medium was removed, and the cells were fixed and stained, and tube-like structures were quantitated.

HUVEC cells [3] = experiment: Fibrin gel in vitro angiogenesis assay; assay type: cell-based, human; details: VEGF/bFGF-induced, 24 h; other peptides 10 μM
Procedure: The ability of endothelial cells to form three-dimensional structures was analyzed using a Fibrin gel in vitro angiogenesis assay kit (Chemicon International Inc. Temecula, Calif.). Fibrin gels were formed in 48-well plates by mixing fibrinogen and thrombin solutions, according to manufacturer instructions. Cells (40,000 cells/well) were then added and cultured in medium containing 2% FBS for 18 h. After the addition of a second layer of fibrin gel, endothelial cells sandwiched within fibrin gels were cultured in serum-free medium containing 0.5% bovine serum albumin (BSA) and the combination of VEGF/bFGF for 24 h. Where indicated, parstatin (1-41) or other indicated peptides were added. Capillary-like network was photographed and measured.

HUVEC cells [4] = experiment: modified Boyden's chamber cell migration assay; assay type: cell-based, human; details: toward 5% FBS, 6 h; other peptides 10 μM
Procedure: HUVEC cell migration was assessed using a modified Boyden's chamber assay, i.e., in Transwell cell culture chambers (Corning Life Sciences, Acton, Mass.). Briefly, polycarbonate filters with 8 μm pores were used to separate the upper and the lower chambers. Cells were added to the upper compartment at a density of 10,000 cells/100 μl in serum-free medium containing 0.5% BSA and incubated for 6 h. Directional migration (chemotaxis) in the lower chamber was induced by addition of medium containing 5% FBS to the lower chamber. Where indicated parstatin or other peptides were added to lower chamber.
Cells on the filters were fixed and stained. The non-migrated cells (cells in upper surface) were removed by wiping with cotton swabs. The cells on the lower surface were counted manually under microscope in six predetermined fields. Parstatin (1-41) attenuated chemotactic cell migration through microporous membrane in response to serum (FIG. 3C). When human parstatin was combined with 5% FBS, the number of migrated cells was reduced in concentration-dependent manner.

HUVEC cells [5] = experiment: MTT cell proliferation assay; assay type: cell-based, human
Procedure: Cell proliferation was evaluated using a 3-(4,5-[…])-2,5-diphenyltetrazolium bromide (MTT, Sigma-Aldrich, St. Louis, Mo.) assay. Endothelial cells (10,000/well) were seeded in 24-well tissue culture plates and incubated with growth medium for 24 h. Cells were then treated with the vehicle or the indicated peptides in medium containing 5% FBS for 1 to 3 days. After 24, 48, or 72 hours, MTT solution (5 mg/ml) was added to each well and incubated for 3 h at 37° C. The blue formazan crystals were solubilized by addition of DMSO and absorbance at 450 nm was recorded using a 96-well plate reader.

HUVEC cells [6] = experiment: [3H]-thymidine incorporation (DNA synthesis); assay type: cell-based, human; details: serum, bFGF or VEGF; comparison peptides 10 μM
Procedure: The ability of parstatin (1-41) to inhibit DNA synthesis of endothelial cells was assessed in thymidine incorporation assays. HUVEC cells were grown until 60-80% confluent in 24-well plates. Cells were treated with indicated peptides in serum-free medium containing either 0.5% BSA, or VEGF, or bFGF, or medium containing 5% FBS, or epidermal growth factor (EGF), or heparin-binging EGF (HB-EGF) for 18 hours. All cells were pulsed with 0.5 μCi/ml [3H]-thymidine (ICN Biomedicals Inc., Irvine Calif.) for additional 6 h. Radioactivity incorporated into DNA was determined in liquid scintillation counter.

[7] = tested on: Erk1/2 (p42/44 MAPK) in HUVEC cells; experiment: Erk1/2 phosphorylation immunoblot (MAP kinase pathway); assay type: cell-based, human; details: pretreatment 1 h, 10 μM; stimulated by FBS, bFGF or VEGF
Procedure: The MAPK (Erk1/2, p42/44) cascade mediates mitogenesis. […] HUVEC cells were cultured in 35 mm tissue culture dishes. After reaching 80% confluency, cells were growth factor-starved and subsequently stimulated for 10 min with vehicle or indicated agents. In combination experiments, cells were pretreated with parstatin or other peptides for 10 to 60 min.
Attached cells were lysed with Laenmli sample buffer, resolved in 10% SDS-PAGE, and transferred to nitrocellulose membranes. Membranes were incubated with primary antibodies against phospho p42/44 mitogen-activated protein kinases (p-Erk1/2, New England Biolabs, UK) and p42/44 Erk1/2 (t-Erk1/2, New England Biolabs, UK). Membranes were then probed with secondary antibodies horseradish peroxidase-conjugated, and proteins were visualized by chemiluminescent detection.

caspase-3 in HUVEC cells = experiment: caspase-3 activity colorimetric assay; assay type: cell-based, human; details: 0.5% BSA, 24 h; mouse and scrambled 10 μM
Procedure: To further support the involvement of caspases in parstatin (1-41) pro-apoptotic effect, its effect on caspase-3 activation was examined using a commercially available kit (Promega, Madison, Wis.). The colorimetric substrate, Ac-DEVD-p-nitroanilide, is cleaved by caspase-3 to release yellow p-nitroanilide, was measured by absorbance at 405 nm to detect caspase activation.
HUVEC cells were grown in 60 mm tissue culture plates until approximately 80% confluency. Cells were treated in absence or in presence of 0.5% BSA or bFGF for 24 h in serum-free medium. Suspended and adherent cells were collected and lysed. Caspase-3 activity was measured by absorbance at 405 nm.

[8] = tested on: corneas of Sprague-Dawley rats; experiment: corneal histopathology after chemical burn (vessels, neutrophils); assay type: in vivo, rat; details: 2×100 μg, day 7
Procedure: After the above-described processes were performed, the rats were sacrificed (7 days) and the eyes were excised. All eyes were sectioned (4 μm) and stained with hematoxylin-eosin. Two independent pathologists, in a blinded manner, evaluated the microvessel density and the inflammatory cell infiltration in each slide. Total corneal vascular vessels and neutrophils were counted at 200× in seven representative stained tissue sections for each eye, covering all cornea area and having a similar distance from the central burn.

HUVEC cells [9] = experiment: cellular uptake of FITC-labeled peptides by flow cytometry; assay type: cell-based, human; details: 30 min exposure
Procedure: HUVEC cells in the exponential growth phase were exposed to various concentrations of parstatin (1-41)-FITC in serum-free medium containing 0.5% BSA. After incubation times ranging from 1 min to 60 min, cells were washed extensively. Washed cells were incubated for 10 min with trypsin at 37° C. to remove the cell surface-bound parstatin. Suspended cells were subsequently centrifuged, washed, and analyzed on FACS flow cytometer (EPICS XL-MCL; Coulter).
The uptake of a given parstatin (1-41)-FITC into cells was assessed by the change of the FITC-positive cell population compared with untreated control cell samples.

HUVEC cells [10] = experiment: cellular uptake by fluorescence microscopy; assay type: cell-based, human; details: FITC-labeled peptide
Procedure: 4′,6-Diamidino-2-phenylindole (DAPI) was used to stain nuclei of all cells. Cell fluorescence was imaged on a Nikon Eclipse TE2000-U microscope. FITC and DAPI were excited using 490-nm and 360-nm filters, respectively. The emission signals were sorted out using 514 and 460 filters for the FITC and DAPI, respectively. HUVEC cells were treated with 10 μM of parstatin (1-41)-FITC for different time intervals. […] FITC signal was detected as early as 5 min of cell exposure to parstatin (1-41)-FITC (FIG. 9C).

| Substance | inhibition of the basal level of angiogenesis in CAMs [1] | tube formation on Matrigel (HUVEC cells [2]) | capillary-like network (total capillary tube length) in fibrin gels (HUVEC cells [3]) | chemotactic cell migration (HUVEC cells [4]) | HUVEC cell proliferation (HUVEC cells [5]; 10 μM) | DNA synthesis in HUVEC cells (HUVEC cells [6]) | activation of Erk1/2 [7] | caspase-3 activity (caspase-3 in HUVEC cells) | mean number (density) of vascular vessels per section [8] | numbers of neutrophils [8] [cells/corneal section] | tube formation on Matrigel (HUVEC cells [2]; listed as mouse parstatin (1-41)) | IC50 (HUVEC cells [5]; stimulus not given, read-out: half-maximal concentration, inhibiting cell proliferation) [µM] | fraction of FITC-positive cell population (HUVEC cells [9]) | cell fluorescence in microscope images (HUVEC cells [10]) |
| --- | --- | --- | --- | --- | --- | --- | --- | --- | --- | --- | --- | --- | --- | --- |
| LRTNASLLVPFLTARAKSSGTREAADPPRLMCLRPLARRCG (Scrambled synthetic peptide) [scrambled parstatin, reference compound] | did not cause any significant effect | did not affect | did not affect | without effect | without effect | did not cause any significant effect | did not alter | without effect | 77.17±3.11 | 39±2.54 | – | – | – | – |
| MGPRRLLIVALGLSLCGPLLSSRVPMSQPESERTDATVNPR [mouse parstatin, 1-41-amino acids cleaved N-terminal fragment of mouse PAR-1] | – | effective in inhibiting tube formation | less pronounced, but still significant, inhibitory effect | significant inhibitory effect, but to a lower extent | – | significant, but less effective inhibitory effect | less pronounced effect | moderate increase | – | – | less pronounced, but still significant, inhibitory effect | 20 | – | – |
| TRARRPESKATNATLDPRK-FITC (TRARRPESKATNATLDPRK(FITC); also: FITC linked to the C-terminal lysine; listed as Homo sapiens) [parstatin (24-41)-FITC, FITC conjugated to human parstatin (24-41) fragment] | – | – | – | – | – | – | – | – | – | – | – | – | minimal and comparable with that of control cells | no fluorescence was observed |

— patent publication US9180163B2, “Parstatin peptides” (priority 2009, dated 2015)
